Source: US20120135866A1, “INCREASING PLANT VIGOR” (DOW AGROSCIENCES LLC, priority 2007, published 2012)
Entries after “also recorded” stand apart in the source; their conditions may differ.

Tests used:
Type in all cases: in vivo
[1] = test system: cotton aphid (CA) Aphis gossypii; assay: Test 1: cotton aphid counts on plants grown from soaked seeds; conditions: for Effect on number of aphids vs check: Test 1, seed soak, compound main effect
Experimental: (§1) Seeds were soaked beginning on T=0 days in solutions of either
(§2) Compound A, imidacloprid, or plain water containing 0.125% (v:v) Tween 20 (check treatment). Compounds were formulated as technical material in water containing 0.125% Tween 20. […] Solution concentrations were 50, 5, 0.5, 0.05 and 0.005 ppm. No evaporation was possible and a significant excess of solution was present to ensure abundant availability of either Compound A or imidacloprid from each solution. On average 20 ml of solution was used to soak groups of seed needed for the seed soaking phase of this test. Seeds were removed from these solutions on T=2 days and planted. Seeds exposed to each unique treatment were germinated as a groups in dedicated shallow plastic cups filled with white sand and containing plain water. Planting of these seeds occurred on T=2 days and the seeds were grown in these shallow cups until T=10 days. Initially 70 ml of water was added to each shallow cup at planting and additional water was added to the cups as needed to keep the sand moist. On T=10 days germinating seedlings were transplanted from the shallow germination cups to individual containers (plastic cups−6 reps per treatment) filled with white sand. Thirty ml of water was used to water the plants following transplanting. After the initial treatment water was added to cups as needed to maintain moisture for plant development. On T=14 days each plant was infested with cotton aphid (CA) Aphis gossypii by transferring a small piece of infested foliage to each test plant. The number of aphids transferred to each plant was uniform based on visual estimation. Plants were rated on T=17 days and T=18 days by counting the number of CA and taking the weight of the each plant. The plant part weighed was the aerial portion of the plant cut off at the surface of the sand. Data were analyzed using analysis of variance with an LSD means separation test (Minitab).
Raw data were not homogeneous and so replicate aphid counts were transformed using a square root count+0.5 transformation.

[2] = test system: Corn (Zea mays 'M2T783') seeds; assay: Test 2: fresh plant weight of corn after seed soak; conditions: for Plant Weight % increase: corn seedling weight vs untreated Tween 20 water check, pooled across rates; for Plant Weight (g) Mean: corn, seed soak, pooled across rates 50-0.19 ppm, fresh weight after 13 days; for Tukey's pair-wise comparison of corn plant weight with untreated Tween 20 water check: pooled compound effects, family-wise error rate 0.05
Experimental: Technical samples of Compound A and imidacloprid were dissolved in water containing 0.125% Tween 20 (V:V). […] The treatment concentrations for Compound A and imidacloprid were 50, 12.5, 3.125, 0.78 and 0.19 ppm. Solutions were prepared in excess and 40 ml was added to 50 ml centrifuge tubes. Corn (Zea mays ‘M2T783’) seeds were inspected for uniform size and undamaged condition and were placed into each centrifuge tube containing specific compound by rate solutions. A treatment of only 0.125% aqueous Tween 20 was used to soak corn seeds and served as the untreated check. Tubes containing seeds and compound solutions were held at room temperature and after […] the seeds were removed from each solution, rinsed and planted into sand in 7.5 cm^2 pots. Tissue paper was placed into the bottom of each pot to keep sand from leaching from the pot. A total of 8 reps of each compound by rate combination were planted for both corn. Eight replicate pots of compound by rate combination were arranged in a completely randomized design on greenhouse carts. This arrangement of treated seeds in pots was placed into the greenhouse and watered over the top as needed. Each cart was equipped with a plastic rack that served to raise the pots up off the cart surface and away from any standing water. The carts were placed in the center of the greenhouse and were rotated 180 degrees daily. After 13 days the carts were moved to the laboratory and the plants were cut off at the soil surface and weighed. Fresh plant weight data were analyzed for homogeneity of variance using Levene's test and further evaluated using one way analysis of variance of individual treatment combinations (compound by rate) and pooled by compound across rates. Means were separated using Tukey's mean separation test with a family-wise error rate of 0.05. All analyses were conducted using Minitab
Corn data were homogeneous based on Levene's test for homgeneity of variance (p=0.116 and p=0.69 respectively). AOV of corn data did indicate a difference (F=3.22, P=0.045, df=2) for pooled compound effects but not for individual treatment effects.

[3] = test system: plant grown from soaked seeds; assay: Test 1: plant weight (aerial portion) after seed soak; conditions: for Effect on plant weight vs check: Test 1, seed soak
Experimental: as §1, §2
Treatment number 4 experienced some negative effects associated with excess watering during the phase when these plants were being germinated. […] Only four replicate plants were able to be planted to individual growing cups. […] Prior to conducting an analysis of individual treatment effects (factorial analysis of variance, LSD means separation test P=0.05, Minitab) on weight Treatment 4 (Compound A 0.05 ppm) was removed from the analysis because it was judged to be an outlier based on poor growth as described above. The paired imidacloprid rate (0.05 ppm, No. 9) was also removed to keep the data balanced.

SMILES: CS(=O)(=NC#N)C(Cl)c1ccc(C(F)(F)F)nc1 (stereo not drawn) [Compound A]
- Effect on number of aphids vs check [1]: significantly more aphids in the check treatment; also recorded: reduced the number of aphids on plants
- Aphids (#/plant) Rep 1 ([1]; seed soak 0.005 ppm): 72 #/plant
- Aphids (#/plant) Rep 2 ([1]; seed soak 0.005 ppm): 110 #/plant
- Aphids (#/plant) Rep 3 ([1]; seed soak 0.005 ppm): 35 #/plant
- Aphids (#/plant) Rep 4 ([1]; seed soak 0.005 ppm): 70 #/plant
- Aphids (#/plant) Rep 5 ([1]; seed soak 0.005 ppm): 55 #/plant
- Aphids (#/plant) Rep 6 ([1]; seed soak 0.005 ppm): 15 #/plant
- Aphids (#/plant) Rep 1 ([1]; seed soak 0.05 ppm): 70 #/plant
- Aphids (#/plant) Rep 2 ([1]; seed soak 0.05 ppm): 80 #/plant
- Aphids (#/plant) Rep 3 ([1]; seed soak 0.05 ppm): 60 #/plant
- Aphids (#/plant) Rep 4 ([1]; seed soak 0.05 ppm): 35 #/plant
- Aphids (#/plant) Rep 1 ([1]; seed soak 0.5 ppm): 55 #/plant
- Aphids (#/plant) Rep 2 ([1]; seed soak 0.5 ppm): 75 #/plant
- Aphids (#/plant) Rep 3 ([1]; seed soak 0.5 ppm): 65 #/plant
- Aphids (#/plant) Rep 4 ([1]; seed soak 0.5 ppm): 40 #/plant
- Aphids (#/plant) Rep 5 ([1]; seed soak 0.5 ppm): 45 #/plant
- Aphids (#/plant) Rep 6 ([1]; seed soak 0.5 ppm): 30 #/plant
- Aphids (#/plant) Rep 1 ([1]; seed soak 5 ppm): 23 #/plant
- Aphids (#/plant) Rep 2 ([1]; seed soak 5 ppm): 25 #/plant
- Aphids (#/plant) Rep 3 ([1]; seed soak 5 ppm): 33 #/plant
- Aphids (#/plant) Rep 4 ([1]; seed soak 5 ppm): 65 #/plant
- Aphids (#/plant) Rep 5 ([1]; seed soak 5 ppm): 25 #/plant
- Aphids (#/plant) Rep 6 ([1]; seed soak 5 ppm): 32 #/plant
- Aphids (#/plant) Rep 1 ([1]; seed soak 50 ppm): 4 #/plant
- Aphids (#/plant) Rep 2 ([1]; seed soak 50 ppm): 2 #/plant
- Aphids (#/plant) Rep 3 ([1]; seed soak 50 ppm): 2 #/plant
- Aphids (#/plant) Rep 4 ([1]; seed soak 50 ppm): 12 #/plant
- Aphids (#/plant) Rep 5 ([1]; seed soak 50 ppm): 18 #/plant
- Aphids (#/plant) Rep 6 ([1]; seed soak 50 ppm): 2 #/plant
- Plant Weight % increase [2]: 38.9%
- Plant Weight (g) Mean [2]: 3.162 g
- Tukey's pair-wise comparison of corn plant weight with untreated Tween 20 water check [2]: significantly different; also recorded: significantly increased plant weight
- Effect on plant weight vs check [3]: significant increase in plant weight
- Plant Weight (g) Rep 1 ([3]; seed soak 0.005 ppm): 2.36 g
- Plant Weight (g) Rep 2 ([3]; seed soak 0.005 ppm): 1.76 g
- Plant Weight (g) Rep 3 ([3]; seed soak 0.005 ppm): 2.09 g
- Plant Weight (g) Rep 4 ([3]; seed soak 0.005 ppm): 2.22 g
- Plant Weight (g) Rep 5 ([3]; seed soak 0.005 ppm): 1.92 g
- Plant Weight (g) Rep 6 ([3]; seed soak 0.005 ppm): 1.93 g
- Plant Weight (g) Rep 1 ([3]; seed soak 0.05 ppm): 0.73 g
- Plant Weight (g) Rep 2 ([3]; seed soak 0.05 ppm): 1.35 g
- Plant Weight (g) Rep 3 ([3]; seed soak 0.05 ppm): 1.2 g
- Plant Weight (g) Rep 4 ([3]; seed soak 0.05 ppm): 1.1 g
- Plant Weight (g) Rep 1 ([3]; seed soak 0.5 ppm): 1.84 g
- Plant Weight (g) Rep 2 ([3]; seed soak 0.5 ppm): 1.88 g
- Plant Weight (g) Rep 3 ([3]; seed soak 0.5 ppm): 2.04 g
- Plant Weight (g) Rep 4 ([3]; seed soak 0.5 ppm): 2.13 g
- Plant Weight (g) Rep 5 ([3]; seed soak 0.5 ppm): 1.96 g
- Plant Weight (g) Rep 6 ([3]; seed soak 0.5 ppm): 1.8 g
- Plant Weight (g) Rep 1 ([3]; seed soak 5 ppm): 2.23 g
- Plant Weight (g) Rep 2 ([3]; seed soak 5 ppm): 2.1 g
- Plant Weight (g) Rep 3 ([3]; seed soak 5 ppm): 1.79 g
- Plant Weight (g) Rep 4 ([3]; seed soak 5 ppm): 2.53 g
- Plant Weight (g) Rep 5 ([3]; seed soak 5 ppm): 1.87 g
- Plant Weight (g) Rep 6 ([3]; seed soak 5 ppm): 1.9 g
- Plant Weight (g) Rep 1 ([3]; seed soak 50 ppm): 2.29 g
- Plant Weight (g) Rep 2 ([3]; seed soak 50 ppm): 2.22 g
- Plant Weight (g) Rep 3 ([3]; seed soak 50 ppm): 2.12 g
- Plant Weight (g) Rep 4 ([3]; seed soak 50 ppm): 1.87 g
- Plant Weight (g) Rep 5 ([3]; seed soak 50 ppm): 1.87 g
- Plant Weight (g) Rep 6 ([3]; seed soak 50 ppm): 2.14 g

SMILES: O=[N+]([O-])NC1=NCCN1Cc1ccc(Cl)nc1 [Imidacloprid, imidacloprid]
- Effect on number of aphids vs check [1]: significantly more aphids in the check treatment; also recorded: reduced the number of aphids on plants
- Aphids (#/plant) Rep 1 ([1]; seed soak 0.005 ppm): 45 #/plant
- Aphids (#/plant) Rep 2 ([1]; seed soak 0.005 ppm): 125 #/plant
- Aphids (#/plant) Rep 3 ([1]; seed soak 0.005 ppm): 55 #/plant
- Aphids (#/plant) Rep 4 ([1]; seed soak 0.005 ppm): 75 #/plant
- Aphids (#/plant) Rep 5 ([1]; seed soak 0.005 ppm): 80 #/plant
- Aphids (#/plant) Rep 6 ([1]; seed soak 0.005 ppm): 35 #/plant
- Aphids (#/plant) Rep 1 ([1]; seed soak 0.05 ppm): 95 #/plant
- Aphids (#/plant) Rep 2 ([1]; seed soak 0.05 ppm): 60 #/plant
- Aphids (#/plant) Rep 3 ([1]; seed soak 0.05 ppm): 65 #/plant
- Aphids (#/plant) Rep 4 ([1]; seed soak 0.05 ppm): 95 #/plant
- Aphids (#/plant) Rep 5 ([1]; seed soak 0.05 ppm): 75 #/plant
- Aphids (#/plant) Rep 6 ([1]; seed soak 0.05 ppm): 50 #/plant
- Aphids (#/plant) Rep 1 ([1]; seed soak 0.5 ppm): 25 #/plant
- Aphids (#/plant) Rep 2 ([1]; seed soak 0.5 ppm): 44 #/plant
- Aphids (#/plant) Rep 3 ([1]; seed soak 0.5 ppm): 43 #/plant
- Aphids (#/plant) Rep 4 ([1]; seed soak 0.5 ppm): 70 #/plant
- Aphids (#/plant) Rep 5 ([1]; seed soak 0.5 ppm): 80 #/plant
- Aphids (#/plant) Rep 6 ([1]; seed soak 0.5 ppm): 30 #/plant
- Aphids (#/plant) Rep 1 ([1]; seed soak 5 ppm): 33 #/plant
- Aphids (#/plant) Rep 2 ([1]; seed soak 5 ppm): 37 #/plant
- Aphids (#/plant) Rep 3 ([1]; seed soak 5 ppm): 17 #/plant
- Aphids (#/plant) Rep 4 ([1]; seed soak 5 ppm): 18 #/plant
- Aphids (#/plant) Rep 5 ([1]; seed soak 5 ppm): 30 #/plant
- Aphids (#/plant) Rep 6 ([1]; seed soak 5 ppm): 34 #/plant
- Aphids (#/plant) Rep 1 ([1]; seed soak 50 ppm): 0 #/plant
- Aphids (#/plant) Rep 2 ([1]; seed soak 50 ppm): 0 #/plant
- Aphids (#/plant) Rep 3 ([1]; seed soak 50 ppm): 4 #/plant
- Aphids (#/plant) Rep 4 ([1]; seed soak 50 ppm): 7 #/plant
- Aphids (#/plant) Rep 5 ([1]; seed soak 50 ppm): 4 #/plant
- Aphids (#/plant) Rep 6 ([1]; seed soak 50 ppm): 1 #/plant
- Plant Weight % increase [2]: 24.8%
- Plant Weight (g) Mean [2]: 2.841 g
- Tukey's pair-wise comparison of corn plant weight with untreated Tween 20 water check [2]: not significantly different
- Effect on plant weight vs check [3]: increased plant weights compared to the check plants
- Plant Weight (g) Rep 1 ([3]; seed soak 0.005 ppm): 2.07 g
- Plant Weight (g) Rep 2 ([3]; seed soak 0.005 ppm): 1.59 g
- Plant Weight (g) Rep 3 ([3]; seed soak 0.005 ppm): 2.01 g
- Plant Weight (g) Rep 4 ([3]; seed soak 0.005 ppm): 1.67 g
- Plant Weight (g) Rep 5 ([3]; seed soak 0.005 ppm): 1.86 g
- Plant Weight (g) Rep 6 ([3]; seed soak 0.005 ppm): 1.68 g
- Plant Weight (g) Rep 1 ([3]; seed soak 0.05 ppm): 1.38 g
- Plant Weight (g) Rep 2 ([3]; seed soak 0.05 ppm): 1.37 g
- Plant Weight (g) Rep 3 ([3]; seed soak 0.05 ppm): 1.65 g
- Plant Weight (g) Rep 4 ([3]; seed soak 0.05 ppm): 1.57 g
- Plant Weight (g) Rep 5 ([3]; seed soak 0.05 ppm): 1.72 g
- Plant Weight (g) Rep 6 ([3]; seed soak 0.05 ppm): 1.62 g
- Plant Weight (g) Rep 1 ([3]; seed soak 0.5 ppm): 1.61 g
- Plant Weight (g) Rep 2 ([3]; seed soak 0.5 ppm): 1.82 g
- Plant Weight (g) Rep 3 ([3]; seed soak 0.5 ppm): 1.73 g
- Plant Weight (g) Rep 4 ([3]; seed soak 0.5 ppm): 2.05 g
- Plant Weight (g) Rep 5 ([3]; seed soak 0.5 ppm): 1.66 g
- Plant Weight (g) Rep 6 ([3]; seed soak 0.5 ppm): 1.95 g
- Plant Weight (g) Rep 1 ([3]; seed soak 5 ppm): 1.64 g
- Plant Weight (g) Rep 2 ([3]; seed soak 5 ppm): 1.44 g
- Plant Weight (g) Rep 3 ([3]; seed soak 5 ppm): 1.91 g
- Plant Weight (g) Rep 4 ([3]; seed soak 5 ppm): 1.44 g
- Plant Weight (g) Rep 5 ([3]; seed soak 5 ppm): 1.75 g
- Plant Weight (g) Rep 6 ([3]; seed soak 5 ppm): 2.05 g
- Plant Weight (g) Rep 1 ([3]; seed soak 50 ppm): 1.47 g
- Plant Weight (g) Rep 2 ([3]; seed soak 50 ppm): 2.05 g
- Plant Weight (g) Rep 3 ([3]; seed soak 50 ppm): 1.73 g
- Plant Weight (g) Rep 4 ([3]; seed soak 50 ppm): 1.84 g
- Plant Weight (g) Rep 5 ([3]; seed soak 50 ppm): 2.02 g
- Plant Weight (g) Rep 6 ([3]; seed soak 50 ppm): 1.86 g
